Results: ChEMBL document CHEMBL3885861, “Open TG-GATES”

Species on record: Rattus norvegicus
Experiment: Open TG-GATES - Regimen: Daily Repeat
Assay type: toxicity, organism-based, Sprague-Dawley
Design: regimen Daily Repeat, gender Male, age 6 weeks
Settings: in vivo, po, route gavage; for gamma-GTP / ALP / ALT / AST / BUN / CRE / Ca / Cl / DBIL / GLC / IP / K / LDH / Na / PL / RALB / TBIL / TC / TG / TP: tissue Plasma; for APTT / Bas / Eos / Fbg / Ht / Lym / MCH / MCHC / MCV / Mono / Neu / PT / Plat / RBC / Ret / WBC: tissue Blood; for KIDNEY_L / KIDNEY_R / KIDNEY_TOTAL: tissue Kidney; for LIVER: tissue Liver
[1] = 30 mg/kg, 72 h, dose level Middle, time 3 day
[2] = 30 mg/kg, […], dose level Middle, time 7 day
[3] = 30 mg/kg, […], dose level Middle, time 14 day
[4] = 30 mg/kg, […], dose level Middle, time 28 day
[5] = 100 mg/kg, 72 h, dose level High, time 3 day
[6] = 100 mg/kg, […], dose level High, time 7 day
[7] = 100 mg/kg, […], dose level High, time 14 day
[8] = 100 mg/kg, […], dose level High, time 28 day

Cc1cccc(Nc2cc(Cl)nc(SCC(=O)O)n2)c1C [PIRINIXIC ACID]
gamma-GTP (10 mg/kg, […], dose level Low, time 28 day): 1.2 IU/L
TERMINAL_BW [1]: 229.5 g
APTT [1]: 15.8 s
Bas [1]: 0%
Eos [1]: 0.8%
Fbg [1]: 199.8 mg/dL
Ht [1]: 39.5%
Lym [1]: 71.6%
MCH [1]: 21.7 pg
MCHC [1]: 34.3%
MCV [1]: 63.4 fL
Mono [1]: 3.2%
Neu [1]: 23.8%
PT [1]: 12.4 s
Plat [1]: 106.4 x10_4/uL
RBC [1]: 623.8 x10_4/ul
Ret [1]: 5.5%
WBC [1]: 85.4 x10_2/uL
KIDNEY_L [1]: 1 g
KIDNEY_R [1]: 1 g
KIDNEY_TOTAL [1]: 2 g
LIVER [1]: 15.1 g
ALP [1]: 1953.2 IU/L
ALT [1]: 77.6 IU/L
AST [1]: 112 IU/L
BUN [1]: 14 mg/dL
CRE [1]: 0.2 mg/dL
Ca [1]: 10.7 mg/dL
Cl [1]: 106.4 meq/L
DBIL [1]: 0.02 mg/dL
GLC [1]: 192.6 mg/dL
IP [1]: 7.1 mg/dL
K [1]: 4 meq/L
LDH [1]: 167 IU/L
Na [1]: 143.6 meq/L
PL [1]: 106.2 mg/dL
RALB [1]: 2.6 g/dL
TBIL [1]: 0.026 mg/dL
TC [1]: 51 mg/dL
TG [1]: 31.4 mg/dL
TP [1]: 5.2 g/dL
gamma-GTP [1]: 1 IU/L
TERMINAL_BW [2]: 270.6 g
TERMINAL_BW [3]: 309.3 g
TERMINAL_BW [4]: 373.2 g
APTT [2]: 18 s
Bas [2]: 0%
Eos [2]: 0.8%
Fbg [2]: 230.8 mg/dL
Ht [2]: 37.9%
Lym [2]: 76.6%
MCH [2]: 22.1 pg
MCHC [2]: 34%
MCV [2]: 64.9 fL
Mono [2]: 3.2%
Neu [2]: 19%
PT [2]: 12.7 s
Plat [2]: 115.8 x10_4/uL
RBC [2]: 585.4 x10_4/ul
Ret [2]: 5.5%
WBC [2]: 114.2 x10_2/uL
APTT [3]: 16.4 s
Bas [3]: 0%
Eos [3]: 1%
Fbg [3]: 214 mg/dL
Ht [3]: 38.2%
Lym [3]: 76.8%
MCH [3]: 21.1 pg
MCHC [3]: 34.8%
MCV [3]: 60.5 fL
Mono [3]: 3.6%
Neu [3]: 18.2%
PT [3]: 12.8 s
Plat [3]: 136.3 x10_4/uL
RBC [3]: 631.8 x10_4/ul
Ret [3]: 4.3%
WBC [3]: 121.9 x10_2/uL
APTT [4]: 15.2 s
Bas [4]: 0%
Eos [4]: 1%
Fbg [4]: 223.8 mg/dL
Ht [4]: 39.5%
Lym [4]: 78%
MCH [4]: 19.6 pg
MCHC [4]: 34.9%
MCV [4]: 56.2 fL
Mono [4]: 3%
Neu [4]: 17.6%
PT [4]: 12.4 s
RBC [4]: 703.4 x10_4/ul
Ret [4]: 3.3%
WBC [4]: 108.3 x10_2/uL
KIDNEY_L [2]: 1.2 g
KIDNEY_R [2]: 1.1 g
KIDNEY_TOTAL [2]: 2.3 g
KIDNEY_L [3]: 1.4 g
KIDNEY_R [3]: 1.3 g
KIDNEY_TOTAL [3]: 2.7 g
KIDNEY_L [4]: 1.5 g
KIDNEY_R [4]: 1.5 g
KIDNEY_TOTAL [4]: 3 g
LIVER [2]: 21.7 g
LIVER [3]: 25.2 g
LIVER [4]: 29.4 g
ALP [2]: 1797.4 IU/L
ALT [2]: 53 IU/L
AST [2]: 71.8 IU/L
BUN [2]: 19.4 mg/dL
CRE [2]: 0.2 mg/dL
Ca [2]: 11.2 mg/dL
Cl [2]: 103 meq/L
DBIL [2]: 0.014 mg/dL
GLC [2]: 191.8 mg/dL
IP [2]: 7 mg/dL
K [2]: 4.1 meq/L
LDH [2]: 180.2 IU/L
Na [2]: 142.2 meq/L
PL [2]: 139 mg/dL
RALB [2]: 2.9 g/dL
TBIL [2]: 0.032 mg/dL
TC [2]: 71.6 mg/dL
TG [2]: 46 mg/dL
TP [2]: 6.1 g/dL
gamma-GTP [2]: 1 IU/L
ALP [3]: 1895.2 IU/L
ALT [3]: 48.2 IU/L
AST [3]: 66.6 IU/L
BUN [3]: 19.2 mg/dL
CRE [3]: 0.2 mg/dL
Ca [3]: 10.5 mg/dL
Cl [3]: 102.6 meq/L
DBIL [3]: 0.016 mg/dL
GLC [3]: 194.6 mg/dL
IP [3]: 7.1 mg/dL
K [3]: 3.9 meq/L
LDH [3]: 114 IU/L
Na [3]: 141.8 meq/L
PL [3]: 144.4 mg/dL
RALB [3]: 2.9 g/dL
TBIL [3]: 0.034 mg/dL
TC [3]: 69.6 mg/dL
TG [3]: 51.6 mg/dL
TP [3]: 6.1 g/dL
gamma-GTP [3]: 1.4 IU/L
ALP [4]: 1970.8 IU/L
ALT [4]: 47.2 IU/L
AST [4]: 62.4 IU/L
BUN [4]: 18.2 mg/dL
CRE [4]: 0.2 mg/dL
Ca [4]: 10.7 mg/dL
Cl [4]: 102.8 meq/L
DBIL [4]: 0.012 mg/dL
GLC [4]: 189.2 mg/dL
IP [4]: 7.2 mg/dL
K [4]: 3.7 meq/L
LDH [4]: 111.4 IU/L
Na [4]: 141.6 meq/L
PL [4]: 149 mg/dL
RALB [4]: 3 g/dL
TBIL [4]: 0.05 mg/dL
TC [4]: 70.6 mg/dL
TG [4]: 55.4 mg/dL
TP [4]: 6.5 g/dL
gamma-GTP [4]: 1.2 IU/L
TERMINAL_BW [5]: 236.1 g
APTT [5]: 16.4 s
Bas [5]: 0%
Eos [5]: 1%
Fbg [5]: 210.2 mg/dL
Ht [5]: 39.4%
Lym [5]: 73.4%
MCH [5]: 21.2 pg
MCHC [5]: 34%
MCV [5]: 62.5 fL
Mono [5]: 3%
Neu [5]: 22%
PT [5]: 12.2 s
Plat [5]: 112.9 x10_4/uL
RBC [5]: 630.2 x10_4/ul
Ret [5]: 5.7%
WBC [5]: 78.7 x10_2/uL
KIDNEY_L [5]: 1.1 g
KIDNEY_R [5]: 1.1 g
KIDNEY_TOTAL [5]: 2.1 g
LIVER [5]: 16.9 g
ALP [5]: 1976.4 IU/L
ALT [5]: 70.6 IU/L
AST [5]: 103.4 IU/L
BUN [5]: 15.8 mg/dL
CRE [5]: 0.2 mg/dL
Ca [5]: 10.8 mg/dL
Cl [5]: 105.2 meq/L
DBIL [5]: 0.022 mg/dL
GLC [5]: 192.2 mg/dL
IP [5]: 7.3 mg/dL
K [5]: 4.1 meq/L
LDH [5]: 189.6 IU/L
Na [5]: 144 meq/L
PL [5]: 116 mg/dL
RALB [5]: 2.7 g/dL
TBIL [5]: 0.028 mg/dL
TC [5]: 59 mg/dL
TG [5]: 34 mg/dL
TP [5]: 5.4 g/dL
gamma-GTP [5]: 1 IU/L
TERMINAL_BW [6]: 275.8 g
TERMINAL_BW [7]: 297.8 g
TERMINAL_BW [8]: 351.6 g
APTT [6]: 15.4 s
Bas [6]: 0%
Eos [6]: 0.8%
Fbg [6]: 225 mg/dL
Ht [6]: 36.2%
Lym [6]: 76.6%
MCH [6]: 21.4 pg
MCHC [6]: 34.3%
MCV [6]: 62.4 fL
Mono [6]: 3.2%
Neu [6]: 19%
PT [6]: 12.5 s
Plat [6]: 129.5 x10_4/uL
RBC [6]: 580.4 x10_4/ul
Ret [6]: 5.9%
WBC [6]: 116.4 x10_2/uL
APTT [7]: 17.3 s
Bas [7]: 0%
Eos [7]: 0.8%
Fbg [7]: 207 mg/dL
Ht [7]: 38.8%
Lym [7]: 75.4%
MCH [7]: 20.3 pg
MCHC [7]: 34.6%
MCV [7]: 58.7 fL
Mono [7]: 3.6%
Neu [7]: 19.4%
PT [7]: 12.9 s
Plat [7]: 121.9 x10_4/uL
RBC [7]: 661.2 x10_4/ul
Ret [7]: 4.3%
WBC [7]: 147.9 x10_2/uL
APTT [8]: 16.6 s
Bas [8]: 0%
Eos [8]: 1.2%
Fbg [8]: 216.6 mg/dL
Ht [8]: 39.4%
Lym [8]: 74.2%
MCH [8]: 18.8 pg
MCHC [8]: 35%
MCV [8]: 53.7 fL
Mono [8]: 4%
Neu [8]: 19.6%
PT [8]: 12.4 s
RBC [8]: 734.2 x10_4/ul
Ret [8]: 2.5%
WBC [8]: 118.8 x10_2/uL
KIDNEY_L [6]: 1.2 g
KIDNEY_R [6]: 1.2 g
KIDNEY_TOTAL [6]: 2.3 g
KIDNEY_L [7]: 1.3 g
KIDNEY_R [7]: 1.3 g
KIDNEY_TOTAL [7]: 2.6 g
KIDNEY_L [8]: 1.6 g
KIDNEY_R [8]: 1.6 g
KIDNEY_TOTAL [8]: 3.1 g
LIVER [6]: 24.1 g
LIVER [7]: 26.1 g
LIVER [8]: 30.8 g
ALP [6]: 1688.2 IU/L
ALT [6]: 46.4 IU/L
AST [6]: 66.4 IU/L
BUN [6]: 18.8 mg/dL
CRE [6]: 0.2 mg/dL
Ca [6]: 11.3 mg/dL
Cl [6]: 102.8 meq/L
DBIL [6]: 0.014 mg/dL
GLC [6]: 201.8 mg/dL
IP [6]: 7.4 mg/dL
K [6]: 4 meq/L
LDH [6]: 142 IU/L
Na [6]: 142 meq/L
PL [6]: 143 mg/dL
RALB [6]: 3 g/dL
TBIL [6]: 0.026 mg/dL
TC [6]: 69.4 mg/dL
TG [6]: 52 mg/dL
TP [6]: 6.1 g/dL
gamma-GTP [6]: 0.6 IU/L
ALP [7]: 1872.4 IU/L
ALT [7]: 49.6 IU/L
AST [7]: 75 IU/L
BUN [7]: 19.4 mg/dL
CRE [7]: 0.2 mg/dL
Ca [7]: 10.4 mg/dL
Cl [7]: 102.8 meq/L
DBIL [7]: 0.022 mg/dL
GLC [7]: 189.6 mg/dL
IP [7]: 7.1 mg/dL
K [7]: 3.8 meq/L
LDH [7]: 141 IU/L
Na [7]: 141.8 meq/L
PL [7]: 149.6 mg/dL
RALB [7]: 2.9 g/dL
TBIL [7]: 0.032 mg/dL
TC [7]: 74.8 mg/dL
TG [7]: 44.4 mg/dL
TP [7]: 6.1 g/dL
gamma-GTP [7]: 1.2 IU/L
ALP [8]: 1888.4 IU/L
ALT [8]: 41.8 IU/L
AST [8]: 65.8 IU/L
BUN [8]: 17.2 mg/dL
CRE [8]: 0.2 mg/dL
Ca [8]: 10.8 mg/dL
Cl [8]: 102.2 meq/L
DBIL [8]: 0.008 mg/dL
GLC [8]: 189.2 mg/dL
IP [8]: 7.6 mg/dL
K [8]: 3.7 meq/L
LDH [8]: 109 IU/L
Na [8]: 141.8 meq/L
PL [8]: 147.4 mg/dL
RALB [8]: 3 g/dL
TBIL [8]: 0.048 mg/dL
TC [8]: 80 mg/dL
TG [8]: 43.6 mg/dL
TP [8]: 6.6 g/dL
gamma-GTP [8]: 1 IU/L
